According to PubChem BioAssay AID1963446 (Molecular Pharmacology Branch, DTP, NCI, 2024):
Several values for one entry are separate records, joined by “and”; a condition that tells them apart may be missing. Equal entries are not always repeated.

Test system: 993429-296-R-J1-PDC complex spheroid growth, percent test/control
Assay: Anticancer human tumor 993429-296-R-J1-PDC patient-derived uterine sarcoma cell line growth inhibition [Asc]
Conditions: for viability, T/C: stronger effect = lower value
In short: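 Stromal components (HUVEC and hMSC) are co-assembled with the cancer cells into multicellular spheroids. Drugs are then added singly or paired, at concentrations falling by half-log increments from a clinically achievable maximum, capped at 10 microM without known Cmax.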

[1] = curve of first compound, second compound 0.01 µM
[2] = curve of first compound, second compound 0.0316 µM
[3] = curve of first compound, second compound 0.1 µM
[4] = curve of first compound, second compound 0.316 µM
[5] = curve of first compound, second compound 1 µM
[6] = second compound 0.01 µM, first compound 0.0316 µM
[7] = second compound 0.01 µM, first compound 0.1 µM
[8] = second compound 0.0316 µM, first compound 0.0316 µM
[9] = second compound 0.0316 µM, first compound 0.1 µM
[10] = second compound 0.1 µM, first compound 0.000316 µM
[11] = second compound 0.1 µM, first compound 0.001 µM
[12] = second compound 0.1 µM, first compound 0.00316 µM
[13] = second compound 0.1 µM, first compound 0.01 µM
[14] = second compound 0.1 µM, first compound 0.0316 µM
[15] = second compound 0.1 µM, first compound 0.1 µM
[16] = second compound 0.316 µM, first compound 0.000316 µM
[17] = second compound 0.316 µM, first compound 0.001 µM
[18] = second compound 0.316 µM, first compound 0.00316 µM
[19] = second compound 0.316 µM, first compound 0.01 µM
[20] = second compound 0.316 µM, first compound 0.0316 µM
[21] = second compound 0.316 µM, first compound 0.1 µM
[22] = second compound 1 µM, first compound 0.000316 µM
[23] = second compound 1 µM, first compound 0.001 µM
[24] = second compound 1 µM, first compound 0.00316 µM
[25] = second compound 1 µM, first compound 0.01 µM
[26] = second compound 1 µM, first compound 0.0316 µM
[27] = second compound 1 µM, first compound 0.1 µM
[28] = second compound 0.1 µM, first compound 0.316 µM
[29] = second compound 0.1 µM, first compound 1 µM
[30] = second compound 0.316 µM, first compound 0.316 µM
[31] = second compound 0.316 µM, first compound 1 µM
[32] = second compound 1 µM, first compound 0.316 µM
[33] = second compound 1 µM, first compound 1 µM
[34] = curve of first compound, second compound 3.16 µM
[35] = curve of first compound, second compound 10 µM
[36] = second compound 3.16 µM, first compound 0.00316 µM
[37] = second compound 3.16 µM, first compound 0.01 µM
[38] = second compound 3.16 µM, first compound 0.0316 µM
[39] = second compound 3.16 µM, first compound 0.1 µM
[40] = second compound 10 µM, first compound 0.00316 µM
[41] = second compound 10 µM, first compound 0.01 µM
[42] = second compound 10 µM, first compound 0.0316 µM
[43] = second compound 10 µM, first compound 0.1 µM
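Further: spheroids exposed to compounds for seven days.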

## NC1CCC(NC2CC2c2ccccc2)CC1 (stereo not given) + CNC(C)C(=O)NC1CN(S(=O)(=O)c2cccc(S(=O)(=O)N3CCC4CCC(C(=O)NC(c5ccccc5)c5ccccc5)N4C(=O)C(NC(=O)C(C)NC)C3)c2)CCC2CCC(C(=O)NC(c3ccccc3)c3ccccc3)N2C1=O
[1]
  IC50: > 100 nM
[2]
  IC50: > 100 nM
[3]
  IC50: > 100 nM
[4]
  IC50: > 100 nM
[5]
  IC50: < 0.316 nM
Second compound 0.01 µM, first compound 0.000316 µM
  viability, T/C: 63.9%
Second compound 0.01 µM, first compound 0.001 µM
  viability, T/C: 62.7%
Second compound 0.01 µM, first compound 0.00316 µM
  viability, T/C: 57.3%
Second compound 0.01 µM, first compound 0.01 µM
  viability, T/C: 63.6%
[6]
  viability, T/C: 57.8%
[7]
  viability, T/C: 63.4%
Second compound 0.0316 µM, first compound 0.000316 µM
  viability, T/C: 53.3%
Second compound 0.0316 µM, first compound 0.001 µM
  viability, T/C: 56.3%
Second compound 0.0316 µM, first compound 0.00316 µM
  viability, T/C: 48.5%
Second compound 0.0316 µM, first compound 0.01 µM
  viability, T/C: 46.5%
[8]
  viability, T/C: 57.7%
[9]
  viability, T/C: 57.9%
[10]
  viability, T/C: 53.1%
[11]
  viability, T/C: 53.5%
[12]
  viability, T/C: 58.6%
[13]
  viability, T/C: 54.9%
[14]
  viability, T/C: 58.3%
[15]
  viability, T/C: 56%
[16]
  viability, T/C: 59.7%
[17]
  viability, T/C: 51.5%
[18]
  viability, T/C: 48.1%
[19]
  viability, T/C: 50.2%
[20]
  viability, T/C: 53.2%
[21]
  viability, T/C: 49.8%
[22]
  viability, T/C: 45.9%
[23]
  viability, T/C: 41.7%
[24]
  viability, T/C: 39.7%
[25]
  viability, T/C: 41.1%
[26]
  viability, T/C: 47.9%
[27]
  viability, T/C: 28.1%

## CNC(C)C(=O)NC1CN(S(=O)(=O)c2cccc(S(=O)(=O)N3CCC4CCC(C(=O)NC(c5ccccc5)c5ccccc5)N4C(=O)C(NC(=O)C(C)NC)C3)c2)CCC2CCC(C(=O)NC(c3ccccc3)c3ccccc3)N2C1=O (stereo not given)
Compound 0.00316 µM
  viability, T/C: 80% and 76.5%
Compound 0.01 µM
  viability, T/C: 68.6% [middle of 15 runs]
Compound 0.0316 µM
  viability, T/C: 62.4% [middle of 15 runs]
Compound 0.1 µM
  viability, T/C: 55.9% [middle of 15 runs]
Compound 1 µM
  viability, T/C: 50.4% [middle of 15 runs]
Curve of compound
  IC50: > 1000 nM

## C=CC(=O)N1CCN(c2nc(=O)n(-c3c(C)ccnc3C(C)C)c3nc(-c4c(O)cccc4F)c(F)cc23)C(C)C1 (stereo not given) + CNC(C)C(=O)NC1CN(S(=O)(=O)c2cccc(S(=O)(=O)N3CCC4CCC(C(=O)NC(c5ccccc5)c5ccccc5)N4C(=O)C(NC(=O)C(C)NC)C3)c2)CCC2CCC(C(=O)NC(c3ccccc3)c3ccccc3)N2C1=O
[1]
  IC50: > 10000 nM
[2]
  IC50: > 10000 nM
[3]
  IC50: > 10000 nM
[4]
  IC50: > 10000 nM
[5]
  IC50: > 10000 nM
[6]
  viability, T/C: 58.3%
[7]
  viability, T/C: 67.2%
Second compound 0.01 µM, first compound 0.316 µM
  viability, T/C: 71.1%
Second compound 0.01 µM, first compound 1 µM
  viability, T/C: 69.7%
Second compound 0.01 µM, first compound 3.16 µM
  viability, T/C: 75.1%
Second compound 0.01 µM, first compound 10 µM
  viability, T/C: 68.1%
[8]
  viability, T/C: 58.9%
[9]
  viability, T/C: 65.8%
Second compound 0.0316 µM, first compound 0.316 µM
  viability, T/C: 66.2%
Second compound 0.0316 µM, first compound 1 µM
  viability, T/C: 49.3%
Second compound 0.0316 µM, first compound 3.16 µM
  viability, T/C: 62.8%
Second compound 0.0316 µM, first compound 10 µM
  viability, T/C: 61.2%
[14]
  viability, T/C: 56.7%
[15]
  viability, T/C: 49.8%
[28]
  viability, T/C: 62.8%
[29]
  viability, T/C: 65%
Second compound 0.1 µM, first compound 3.16 µM
  viability, T/C: 59.9%
Second compound 0.1 µM, first compound 10 µM
  viability, T/C: 64.5%
[20]
  viability, T/C: 52.3%
[21]
  viability, T/C: 48.6%
[30]
  viability, T/C: 60.6%
[31]
  viability, T/C: 55.9%
Second compound 0.316 µM, first compound 3.16 µM
  viability, T/C: 62.1%
Second compound 0.316 µM, first compound 10 µM
  viability, T/C: 59.5%
[26]
  viability, T/C: 51.7%
[27]
  viability, T/C: 57.3%
[32]
  viability, T/C: 61.5%
[33]
  viability, T/C: 60.6%
Second compound 1 µM, first compound 3.16 µM
  viability, T/C: 59.2%
Second compound 1 µM, first compound 10 µM
  viability, T/C: 59%

## NC1CCC(NC2CC2c2ccccc2)CC1 (stereo not given) + Cc1c(S(C)(=O)=O)c(-c2cc(F)cc(N3CCN(c4ccc(NS(=O)(=O)c5ccc(NC(CCN6CCC(C(=O)OCCCP(=O)(O)O)CC6)CSc6ccccc6)c(S(=O)(=O)C(F)(F)F)c5)cc4)CC3)c2)c(-c2ccc(Cl)cc2)n1C(C)C
[3]
  IC50: > 100 nM
[4]
  IC50: 8.25 nM
[5]
  IC50: < 0.316 nM
[34]
  IC50: < 0.316 nM
[35]
  IC50: < 0.316 nM
[10]
  viability, T/C: 72.7%
[11]
  viability, T/C: 65.1%
[12]
  viability, T/C: 65%
[13]
  viability, T/C: 57.6%
[14]
  viability, T/C: 65.2%
[15]
  viability, T/C: 65.3%
[16]
  viability, T/C: 61.2%
[17]
  viability, T/C: 60.9%
[18]
  viability, T/C: 57%
[19]
  viability, T/C: 46.4%
[20]
  viability, T/C: 47.9%
[21]
  viability, T/C: 51.6%
[22]
  viability, T/C: 32.5%
[23]
  viability, T/C: 30.4%
[24]
  viability, T/C: 29.1%
[25]
  viability, T/C: 30.5%
[26]
  viability, T/C: 28.3%
[27]
  viability, T/C: 35.4%
Second compound 3.16 µM, first compound 0.000316 µM
  viability, T/C: 27%
Second compound 3.16 µM, first compound 0.001 µM
  viability, T/C: 28.9%
[36]
  viability, T/C: 28.6%
[37]
  viability, T/C: 25.6%
[38]
  viability, T/C: 30.5%
[39]
  viability, T/C: 31.7%
Second compound 10 µM, first compound 0.000316 µM
  viability, T/C: 30%
Second compound 10 µM, first compound 0.001 µM
  viability, T/C: 41.7%
[40]
  viability, T/C: 26.4%
[41]
  viability, T/C: 26.3%
[42]
  viability, T/C: 32.9%
[43]
  viability, T/C: 36.8%

## O=C(c1ccc(F)c(F)c1Nc1ccc(I)cc1F)N1CC(O)([C@@H]2CCCCN2)C1 + Cc1c(S(C)(=O)=O)c(-c2cc(F)cc(N3CCN(c4ccc(NS(=O)(=O)c5ccc(NC(CCN6CCC(C(=O)OCCCP(=O)(O)O)CC6)CSc6ccccc6)c(S(=O)(=O)C(F)(F)F)c5)cc4)CC3)c2)c(-c2ccc(Cl)cc2)n1C(C)C
[3]
  IC50: 7.5 nM
[4]
  IC50: 9.6 nM
[5]
  IC50: 4.44 nM
[34]
  IC50: < 3.16 nM
[35]
  IC50: 15.8 nM
[12]
  viability, T/C: 63%
[13]
  viability, T/C: 42.8%
[14]
  viability, T/C: 31.9%
[15]
  viability, T/C: 10.2%
[28]
  viability, T/C: 1.93%
[29]
  viability, T/C: 0.33%
[18]
  viability, T/C: 55.9%
[19]
  viability, T/C: 52.7%
[20]
  viability, T/C: 29.1%
[21]
  viability, T/C: 15.3%
[30]
  viability, T/C: 1.67%
[31]
  viability, T/C: 0.23%
[24]
  viability, T/C: 57.6%
[25]
  viability, T/C: 30.8%
[26]
  viability, T/C: 19.3%
[27]
  viability, T/C: 5.07%
[32]
  viability, T/C: 0.22%
[33]
  viability, T/C: 0.14%
[36]
  viability, T/C: 39.2%
[37]
  viability, T/C: 30.8%
[38]
  viability, T/C: 21.1%
[39]
  viability, T/C: 2.83%
Second compound 3.16 µM, first compound 0.316 µM
  viability, T/C: 0.52%
Second compound 3.16 µM, first compound 1 µM
  viability, T/C: 0.18%
[40]
  viability, T/C: 72%
[41]
  viability, T/C: 68.7%
[42]
  viability, T/C: 21.6%
[43]
  viability, T/C: 3.49%
Second compound 10 µM, first compound 0.316 µM
  viability, T/C: 0.84%
Second compound 10 µM, first compound 1 µM
  viability, T/C: 0.16%

## Cc1c(S(C)(=O)=O)c(-c2cc(F)cc(N3CCN(c4ccc(NS(=O)(=O)c5ccc(NC(CCN6CCC(C(=O)OCCCP(=O)(O)O)CC6)CSc6ccccc6)c(S(=O)(=O)C(F)(F)F)c5)cc4)CC3)c2)c(-c2ccc(Cl)cc2)n1C(C)C (stereo not given)
Compound 0.316 µM
  viability, T/C: 60.7% [middle of 14 runs]
Compound 3.16 µM
  viability, T/C: 49.6% [middle of 14 runs]

## CCN1CCN(Cc2ccc(Nc3ncc(F)c(-c4cc(F)c5nc(C)n(C(C)C)c5c4)n3)nc2)CC1
Compound 0.00316 µM
  viability, T/C: 90.1% (2×) and 100%
Compound 0.01 µM
  viability, T/C: 86.7% and 111% and 99.3%
Compound 0.0316 µM
  viability, T/C: 94.1% and 105% and 92.7%
Compound 0.1 µM
  viability, T/C: 85.6% and 98.3% and 93.6%
Compound 0.316 µM
  viability, T/C: 98.6% and 119% and 100%
Compound 1 µM
  viability, T/C: 88.5% and 94.9% and 86.3%
Curve of compound
  IC50: > 1000 nM
